# From patent US20120065165A1, “COMPOSITIONS AND METHODS OF TREATING ENDOTHELIAL DISORDERS” (ARGINETIX, INC, priority 2008, published 2012)
# Key:
# aged Fisher rats = assay: Vascular stiffness by pulse wave velocity (PWV) in Fisher rats; assay type: in vivo, rat
# Procedure: When the heart contracts it generates a pulse, or energy wave, that travels through the circulatory system. […] PWV was determined in aged (22-26 months) Fisher rats, treated with ABH as described in Example 1. […] PWV was measured before and after 28 days of treatment with ABH (6 mg/kg) (See FIG. 5A). ABH improved vascular function in aortic rings tested in organ chambers (See FIG. 5B), while an endothelial-independent NO donor, SNP had no effect (C). *p<0.01 vs. young and #p<0.05 vs. old pre-treated, (n=3-8). […] This affect was not observed in untreated aged rats. There was a small but statistically significant increase in vascular stiffness in young control rats over the 28 days of the experiment. This change however was not observed in rats that were treated with ABH.
# diabetic ZDF rats = assay: ABH plus PDE5 inhibitor in diabetic ZDF rats: erectile function and vasorelaxation (Example 8); assay type: in vivo, rat; conditions: ABH alone
# Procedure: The effects of ABH and PDE5 inhibitors, singly and in combination, in the ZDF model of type 2 diabetes are tested.
# ZLC rats are maintained on a normal diet. […] Ten to twenty minutes prior to each in vivo vasorelaxation experiment, animals will receive a single intravenous dose of the PDE5 inhibitor, sildenafil citrate (Viagra; either 1 or 2 mg/kg iv) or vehicle alone. […] Peak intracavernous pressure, ICP/mean arterial pressure (MAP), and total ICP (area under the erectile curve) are determined in response to intra-cavernous administration of the endothelium-dependent vasodilator ACh, and in response to direct cavernous nerve stimulation. Animals will then be euthanized, and aortas and penile vascular tissues are collected. Biochemical (arginase, NO, eNOS, ROS) and functional (contraction and relaxation in organ baths) indicators of endothelial health are determined in aortic rings and cavernous strips.
compound,measurement,setting,value
"N[C@@H](CCCCB(O)O)C(=O)O [ABH, 2(S)-Amino-6-boronohexanoic acid]","vascular stiffness (pulse wave velocity, PWV)","aged Fisher rats; aged (22-26 months) rats, ABH 6 mg/kg 28 days",marked decrease in vascular stiffness
same,increase in vascular stiffness over the 28 days of the experiment,"aged Fisher rats; young rats, ABH treated vs young control rats",not observed
same,erectile function,diabetic ZDF rats,some positive effects
